For series [1], the system named is Caco-2 cells. Description: Permeation of extract compounds across Caco-2 monolayer (Papp). The series is classed as in vitro ADME, human. As to the method:
(§1) The permeation of the extract in Caco-2 cells was evaluated for three phenolic compounds previously identified and quantified, namely chlorogenic acid, catechin, and epicatechin. […] After 6 h, a sample was collected from the basolateral side and analyzed by HPLC-DAD, using a LiChroCART® 250-4 LiChrospher® 100 RP-18 (5 μm) column (Merck KGaA, Darmstadt, Germany), following the conditions described in a previous study.

Assay in series [2]: as above
The conditions noted are these: human. It counts as in vitro ADME, human. As to the method:
as §1

The test system of series [3] is HepG2 cells. Description: Reactive oxygen species (ROS) production in HepG2 cells (DCFDA). It counts as cell-based, human. The conditions noted are these: TBHP 200 µM alone, 6 h, PBS control = 100%. As to the method: The quantification of reactive oxygen species (ROS) produced in the HepG2 cell line was assessed. HepG2 cells were plated at a concentration of 2.5 × 10^4 cells/well in a black, transparent-bottom 96-well microplate and incubated for 24 h. Afterward, a solution of the 2′,7′–dichlorodifluorescin diacetate (DCFDA) (0.1 mM) was added to the cells and they were incubated in the dark for 45 min. The solution was then removed, and the following samples were applied: a control with only the PBS, tert-butyl hydroperoxide (TBHP) at 200 µM, the extract at 0.164 mg/mL, and a combination of the extract and THBP with their final concentrations being 0.164 mg/mL and 200 µM, respectfully. The microplate was incubated for 6 h in the dark, after which fluorescence was measured with excitation at 495 nm and emission at 527 nm, both at 37 °C (SpectraMax® GEMINI XPS/EM, Molecular Devices®, San Jose, CA, USA). ROS production was determined using Equation (1) by considering that the fluorescence produced by the control group was 100%.(1) ROS Production % =AbsSample/AbsControl × 100 where AbsSample corresponds to the absorbance of the samples and AbsControl corresponds to the absorbance of the control. The assays were carried out in quadruplicate.

For series [4], the system named is Caco-2 cells. Nature of the series: Cholesterol permeation across differentiated Caco-2 monolayer. The series is classed as cell-based, human. As to conditions: cholesterol 5 mM apical, 6 h, extract 0.240 mg/mL, ezetimibe 0.1 mM (methods) / 0.01 mM (Figure 3 legend). As to the method: The cholesterol permeation assays were carried out by following the protocol described by Arantes et al.. Caco-2 cells were cultured in a 12-well microplate with inserts (A = 1.1 cm^2) and maintained until differentiation. To evaluate the integrity of the membrane, transepithelial electrical resistance (TEER) of the formed membrane was measured. When the TEER value exceeded 250 Ω·cm^2, it was considered that the membrane was formed.
Subsequently, 0.5 mL of the solutions to be analyzed was added on the apical side of each insert: cholesterol (5 mM) (control), extract (0.240 mg/mL), extract (0.240 mg/mL) with cholesterol (5 mM), and ezetimibe (0.1 mM) with cholesterol (5 mM). On the basolateral side, 1.5 mL of the Hank’s Balanced Salt Solution (HBSS) was added. The cells were incubated at 37 °C in a 5% CO2 atmosphere for 6 h. After this period, the basolateral solution of each well was collected and analyzed by high-performance liquid chromatography coupled to a diode-array detector (HPLC-DAD) using an Elite LaChrom® (HITACHI, VWR, Tokyo, Japan), with an Autosampler L-2200, a Column Oven L-2300, and a Diode Array Detector L 2455 (VWR, Radnor, PA, USA). The column used was LiChroCART® 250-4 LiCrosphere®100 RP-8 (5 μm) (Merk, Darmstadt, Germany). The conditions followed were the ones presented by Pinto et al.. […]

SMILES strings stand for the structures. Read-outs that look alike come from different tables or passages of the source.

Take `Oc1cc(O)c2c(c1)OC(c1ccc(O)c(O)c1)C(O)C2` (single isomer, unassigned; (+)) [Catechin (13), (+)-Catechin]: the apparent permeability (Papp) in series [1] (Caco-2) is recorded as 14.4 10^−6 cm/s.

In the case of `O=C(/C=C/c1ccc(O)c(O)c1)O[C@@H]1C[C@](O)(C(=O)O)C[C@@H](O)[C@H]1O` [Chlorogenic Acid (3), Chlorogenic Acid], the apparent permeability coefficient (Papp) at 6 h, 0.24 mg/mL in series [2] (Caco-2, apical sample: extract (0.240 mg/mL), Caco-2, 6 h, read-out: Papp) was 6.5 ×10⁻⁶ cm/s; in series [2] (Caco-2, apical sample: extract, Caco-2, read-out: Permeability class (from Papp)), 1 to 10 ×10⁻⁶ cm/s.

Regarding `Oc1cc(O)c2c(c1)O[C@H](c1ccc(O)c(O)c1)[C@H](O)C2` [Epicatechin (15), (−)-Epicatechin], the Papp in series [1] (human, Caco-2, 6 h, 0.24 mg/mL) is reported as 24.0 10^−6 cm/s. In series [2] (Caco-2, Permeability class (from Papp)), this molecule displayed a Papp at 6 h, 0.24 mg/mL of more than 10 ×10⁻⁶ cm/s.

In the case of `CC(C)(C)OO` [TBHP, tert-butyl hydroperoxide], in series [3], the “ROS production (% of control)” value is reported as “approximately 395%”.

As for `O=C1[C@H](CC[C@H](O)c2ccc(F)cc2)[C@@H](c2ccc(O)cc2)N1c1ccc(F)cc1` [ezetimibe], the “Reduction in cholesterol permeability” value in series [4] was 62 ± 5%.

A word on the Papp: it is a coefficient for how fast a substance crosses the barrier.

For the origin of these results see publication PMC12294314, “Bioactive Properties of Persea americana Peel Extract and Their Role in Hypercholesterolemia Management and Cardiovascular Health” (Foods, 2025).
